Measurements from ChEMBL document CHEMBL5634124, “Discovery and optimization of indirubin derivatives as novel ferroptosis inducers for the treatment of colon cancer” (Eur J Med Chem, 2023).
In brackets after ≈: the same amount, converted by molar mass.

How the values were obtained:
[1] = tested on: HCT-116; assay: Cytotoxicity against human HCT-116 cells assessed as inhibition of cell viability incubated for 48 hrs by CCK8 assay; format: functional, cell-based; settings: HCT-116, 48 h
[2] = Kinetic solubility of compound at pH 7.4; format: physicochemical; settings: buffer, read-out: Kinetic_solubility
[3] = Metabolic stability in human liver microsomes assessed as half life at 0.5 uM incubated for 45 mins by LC/MS analysis; format: ADME, Microsome
[4] = Metabolic stability in human liver microsomes assessed as intrinsic clearance at 0.5 uM incubated for 45 mins by LC/MS analysis; format: ADME, Microsome; settings: read-out: CLH
[5] = Metabolic stability in human liver microsomes assessed as hepatic clearance rate at 0.5 uM incubated for 45 mins by LC/MS analysis; format: ADME, Microsome

Row | Compound | IC50 [1] [µM] | further results
1 | C#CC(=O)N1CCN(c2ccc(NC(=O)c3ccc4c(c3)C(=O)/C(=C3/C(=O)Nc5ccccc53)N4)cc2)CC1 | > 20 | –
2 | C=CC(=O)N1CCN(c2ccc(NC(=O)c3ccc4c(c3)C(=O)/C(=C3/C(=O)Nc5ccccc53)N4)cc2)CC1 | > 20 | –
3 | O=C(CCl)CCCC(=O)c1ccc2c(c1)C(=O)/C(=C1/C(=O)Nc3ccccc31)N2 | 3.96 | –
4 | C=CC(=O)N1CCN(C(=O)c2ccc3c(c2)C(=O)/C(=C2/C(=O)Nc4ccccc42)N3)CC1 | 17.6 | –
5 | C=CC(=O)CCCCCC(=O)c1ccc2c(c1)C(=O)/C(=C1/C(=O)Nc3ccccc31)N2 | 13.1 | –
6 | CC(=O)N1CCC(NC(=O)c2ccc3c(c2)C(=O)/C(=C2/C(=O)Nc4ccccc42)N3)CC1 | 4.05 | –
7 | C=CC(=O)CCCCC(=O)c1ccc2c(c1)C(=O)/C(=C1/C(=O)Nc3ccccc31)N2 | 14.1 | –
8 | C#CC(=O)N1CCN(C(=O)c2ccc3c(c2)C(=O)/C(=C2/C(=O)Nc4ccccc42)N3)CC1 | 6.39 | –
9 | C=CC(=O)N1CCN(CCNC(=O)c2ccc3c(c2)C(=O)/C(=C2/C(=O)Nc4ccccc42)N3)CC1 | 17.5 | –
10 | C=CC(=O)CCC(=O)c1ccc2c(c1)C(=O)/C(=C1/C(=O)Nc3ccccc31)N2 | > 20 | –
11 | O=C1Nc2ccccc2/C1=C1/Nc2ccccc2C1=O [INDIRUBIN] | 19.5 | solubility kinetic [2]: 4.01 µg/mL (≈ 15.3 µM); half-life at 0.5 µM [3]: 22.8 min; CLint scaled at 0.5 µM [4]: 70.2 mL/min/kg; CLhep predicted at 0.5 µM [5]: 16 mL/min/kg
12 | C#CC(=O)CCCCC(=O)c1ccc2c(c1)C(=O)/C(=C1/C(=O)Nc3ccccc31)N2 | 3 | –
13 | C#CC(=O)CCCCCC(=O)c1ccc2c(c1)C(=O)/C(=C1/C(=O)Nc3ccccc31)N2 | 3.53 | –
14 | O=C1Nc2ccccc2/C1=C1/Nc2ccc(C(=O)N3CCN(C(=O)CCl)CC3)cc2C1=O | 2.31 | –
15 | C#CC(=O)N1CCN(CCNC(=O)c2ccc3c(c2)C(=O)/C(=C2/C(=O)Nc4ccccc42)N3)CC1 | 6.31 | –
16 | C#CC(=O)CCC(=O)c1ccc2c(c1)C(=O)/C(=C1/C(=O)Nc3ccccc31)N2 | > 20 | –
17 | C#CC(=O)CCCC(=O)c1ccc2c(c1)C(=O)/C(=C1/C(=O)Nc3ccccc31)N2 | 7.4 | –
